Values of other authors as cited in article PMC7457146 (Epigenomics, 2012).
Values joined by “and” are separate entries in the source; they are usually repeats but may differ in a detail not shown here. Equal entries are not always repeated. “Also recorded” adds a separate entry of the source. Where two headings read alike, the source gives them in different places.

What was measured:
HDAC6 = details: ref Data supplied by Gloucester Pharmaceuticles Inc. and performed by Epigentek 2007
VEGF mRNA = details: PC-3 prostate cancer cells, after 12 h
[1] = tested on: cutaneous T-cell lymphoma; details: CTCL
[2] = tested on: pancreatic and other advanced solid tumors; details: in combination with gemcitabine
[3] = tested on: HBL2, Granta519 and Jeko1 MCL cell lines; details: belinostat 100–1000 nM or romidepsin 1–40 nM
HDAC11 = details: ref Data supplied by Gloucester Pharmaceuticles Inc. and performed by Epigentek 2007
HDAC9 = details: ref Data supplied by Gloucester Pharmaceuticles Inc. and performed by Epigentek 2007
HDAC7 = details: ref Data supplied by Gloucester Pharmaceuticles Inc. and performed by Epigentek 2007
[4] = nonhuman primates
[5] = tested on: chronic lymphocytic leukemia
[6] = tested on: Prostate cancer: PC-3 and DU-145; details: read-out: Mean IC50; Prostate cancer cell lines, 72-h incubation; ref Data supplied by Gloucester Pharmaceuticals
HDAC1 = details: ref Data supplied by Gloucester Pharmaceuticles Inc. and performed by Epigentek 2007
[7] = not given; remark: listed apart in the source
HDAC2 = details: ref Data supplied by Gloucester Pharmaceuticles Inc. and performed by Epigentek 2007
[8] = tested on: cutaneous T-cell lymphoma
acute myeloid leukemia [9] = details: ten AML patients, Phase I
HDAC5 = details: ref Data supplied by Gloucester Pharmaceuticles Inc. and performed by Epigentek 2007
[10] = tested on: human lymphoma U-937 tumors; details: SCID mice with U-937 tumors; control median 20 days
HDAC10 = details: ref Data supplied by Gloucester Pharmaceuticles Inc. and performed by Epigentek 2007
[11] = tested on: Epstein-Barr virus-transformed lymphoblastoid cell tumors
CYP3A4 = details: CYP450 family CYP3A4 isoform
HDAC8 = details: ref Data supplied by Gloucester Pharmaceuticles Inc. and performed by Epigentek 2007
refractory lung cancer = details: 17.8 mg/m^2 days 1 and 7 of 21-day cycles, 19 patients
LNCaP cells = details: read-out: IC50 to induce growth delay
multiple myeloma [12] = details: with bortezomib and dexamethasone
[13] = tested on: malignant rhabdoid tumors; details: day 12; 1.2, 2.5 and 5 mg/kg on days 0, 4 and 8
[14] = 42 patients, Phase II trial
[15] = tested on: cutaneous T-cell lymphoma; remark: listed apart in the source
HDAC3 = details: ref Data supplied by Gloucester Pharmaceuticles Inc. and performed by Epigentek 2007
[16] = not given; remark: listed apart in the source
multiple myeloma [17] = tested on: multiple myeloma
HDAC4 = details: ref Data supplied by Gloucester Pharmaceuticles Inc. and performed by Epigentek 2007
acute myeloid leukemia [18] = details: AML, 13 mg/m^2 iv. over 4 h days 1, 8, 15 of 28-day cycle

For `N[C@@H](Cc1ccc(N(CCCl)CCCl)cc1)C(=O)O` [melphalan], the apoptosis (U266 myeloma cells; melphalan 10 μmol/l (control 28%)) is given as 44%.
For `C/C=C1\NC(=O)[C@H]2CSSCC/C=C/[C@H](CC(=O)N[C@H](C(C)C)C(=O)N2)OC(=O)[C@H](C(C)C)NC1=O` [Romidepsin], the “increase in MDR1” value (MDR1; malignant PBMCs of patients in NIH clinical trials) is listed as “eightfold”, the “increase in MDR1” value (MDR1; normal PBMCs of patients in NIH clinical trials) is listed as “sixfold” and the “decrease in expression of VEGF mRNA” value (VEGF mRNA) is listed as 51%. The “complete response (CR) rate” value ([1]; identical in both studies) was 6%, the objective response rate ([1]; two studies) was 34% and 35% and the median response duration ([1]; two studies respectively) was […]. For the same compound, the “patients with SD lasting >4 cycles” value [2] was 12, the IC50 (HDAC6) was […] and the “interaction with bortezomib (3–4 nM)” value [3] was “synergism in all cell lines”. The IC50 (HDAC11) was 169 nM, the IC50 (HDAC9) was 6580 nM and the half-life was “less than 3 h”. For the same compound, the terminal half-life (Phase I PK studies, two-compartment model) was 2.92 h, the IC50 (HDAC7) was 2470 nM and the CNS penetration [4] was […]. The “patients achieving SD as best response” value (colorectal cancer) was “four out of 25”, the Responses ([5]; Phase I, CLL, 10 patients) was “no formal CR or PR; also recorded: No PR/CR (see text)” and the “average reduction in leukocyte counts” value ([5]; seven CLL patients with high peripheral white cell counts, range: 45–76%) was 58%. The IC50 [6] was 2.98 nM, the IC50 (HDAC1) was 111 nM and the aqueous solubility [7] was “limited aqueous solubility”. The “maximum tolerated dose (MTD)” value (HDAC activity; 4-h iv. infusion on days 1, 8 and 15 of a 28-day cycle, pharmacodynamic Phase I study) was 13 mg/m^2, the HDAC activity (HDAC activity; 24 h after treatment) was 59 % of baseline and the terminal elimination half-life (HDAC activity; at 13 mg/m^2) was 3.67 h. The HDAC activity (HDAC activity; immediately after treatment) was 24.6 % of baseline, the IC50 (HDAC2) was […] and the “clinically significant pruritus relief” value ([8]; 28 out of 65 patients with moderate-to-severe pruritus at baseline) was 43%. The “ORR (severity-weighted assessment tool)” value ([8]; 96 patients CTCL) was 34%, the “median duration of response” value ([8]; 96 patients CTCL) was […] and the “median time to progression” value ([8]; 96 patients CTCL) was 8 months. The “median time to response” value ([8]; 96 patients CTCL) was 2 months, the “Responses: PR” value ([8]; Phase II, CTCL, 96 patients) was 24 and the “Responses: SD” value ([8]; Phase II, CTCL, 96 patients) was 26. The “CR or PR” value (acute myeloid leukemia [9]) was “none achieved CR or PR”, the IC50 (HDAC5) was 567 nM and the apoptosis (U266 myeloma cells; romidepsin 0.01 μmol/l (control 28%)) was 43%. The apoptosis (U266 myeloma cells; romidepsin 0.01 μmol/l with melphalan 10 μmol/l) was 73%, the median survival [10] was 30.5 days and 33 days and the IC50 (HDAC10) was 1170 nM. For the same compound, the “survival at 30 days” value ([11]; mouse, in vivo) was 90%, the “increased level of active caspase 3” value ([11]; romidepsin-mediated apoptosis) was 12 fold and the primary metabolising enzyme (CYP3A4) was “primarily metabolized by the CYP450 family CYP3A4 isoform”. The IC50 (HDAC8) was […], the objective responses (refractory lung cancer) was “no objective responses” and the “patients with disease stabilization” value (refractory lung cancer) was “nine”. The IC50 (LNCaP cells) was ~5.79 nM, the median overall survival (multiple myeloma [12]) was “over 36 months” and the minimal responses (multiple myeloma [12]; 25 pretreated myeloma patients) was “three”. For the same compound, the “very good PRs” value (multiple myeloma [12]; 25 pretreated myeloma patients) was “seven”, the “median time to progression” value (multiple myeloma [12]; 95% CI: 5.5–19.6) was 7.2 months and the mean tumor volume [13] was “significant reduction”. For the same compound, the “ECGs with asymptomatic T-wave flattening (grade 1) or ST-segment depression (grade 2)” value [14] was “over 50%”, the “median response duration for all patients” value ([15]; 71 patients advanced CTCL) was […] and the “overall response rate (ORR)” value ([15]; 71 patients advanced CTCL, 14 mg/m^2 days 1, 8, 15 of 28-day cycle) was 34%. For the same compound, the “Responses: PR” value ([15]; Phase II, CTCL, 71 patients) was 20, the “Responses: SD” value ([15]; Phase II, CTCL, 71 patients) was 26 and the IC50 (HDAC3) was 462 nM. For the same compound, the “maximum tolerated dose (MTD)” value ([16]; 4-h iv. infusion, day 1 and 5 schedule, Sandor et al.) was 17.8 mg/m^2, the “maximum tolerated dose (MTD)” value ([16]; day 1, 8 and 15 schedule every 28 days, Marshall et al.) was 13.3 mg/m^2 and the “Responses: SD” value (multiple myeloma [17]; Phase II, MM, 12 patients) was 11 SD. The clinical responses (multiple myeloma [17]; single agent 13 mg/m^2, 13 MM patients) was “no clinical responses were observed”, the IC50 (HDAC4) was 466 nM and the “patients with antileukemic activity” value (acute myeloid leukemia [18]) was “five out of seven”.
In the case of `C/C=C1\NC(=O)[C@@H](CS)NC(=O)[C@@H](C(C)C)NC(=O)C[C@@H](/C=C/CCS)OC(=O)[C@H](C(C)C)NC1=O` [Activated romidepsin], the IC50 (HDAC6) is given as 32.6 nM, the IC50 (HDAC11) is given as 64.1 nM and the IC50 (HDAC9) is given as 2730 nM. For the same compound, the IC50 (HDAC7) was 279 nM, the IC50 (HDAC5) was 79.6 nM and the IC50 (HDAC10) was 368 nM. For the same compound, the IC50 (HDAC8) was 34.3 nM, the IC50 (HDAC3) was 103 nM and the IC50 (HDAC4) was 95.7 nM.
In the case of `O=C(/C=C/c1cccc(S(=O)(=O)Nc2ccccc2)c1)NO` [belinostat], the “interaction with bortezomib (3–4 nM)” value [3] is given as “synergism in all cell lines”.
